According to patent EP4603105A1, “PHARMACEUTICAL COMPOSITION CONTAINING CYCLIC COMPOUND HAVING SELECTIVE KRAS INHIBITORY EFFECT AGAINST HRAS AND NRAS” (CHUGAI SEIYAKU KABUSHIKI KAISHA, priority 2022, dated 2024):

Tests used:
[1] = biological target: GDP-bound NRAS wild-type protein (Homo sapiens, UniProt P01111); experiment: Binding to NRAS by surface plasmon resonance (SPR), KD and KD ratio to KRAS; settings: ratio of the KD value with respect to GDP-bound NRAS wild-type protein to the KD value with respect to KRAS
Outline: (§1)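 Each cycle, GDP-bound biotin-Avi RAS was captured (~100–300 RU), compound concentrations were injected low to high for 75 s each at 100 µL/min, then the chip was regenerated. Buffer: HBS pH 7.4, 10 mM MgCl2, 10 µM GDP, 1 mM DTT, 4% DMSO; 30°C. KD from a 1:1 binding model.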

[2] = system: human lung cancer strain NCI-H441; format: cell-based
Outline: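 Signal came from […] measured per well once the reagent was added. Beforehand, cells were cultured at 37°C and 5% carbon dioxide on a compound series serially diluted in dimethyl sulfoxide.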

HRAS wild-type protein = HRAS wild-type protein (Homo sapiens, UniProt P01112); experiment: Binding to HRAS by surface plasmon resonance (SPR), KD and KD ratio to KRAS; settings: ratio of the KD value with respect to HRAS wild-type protein to the KD value with respect to KRAS
Outline: as §1

HRAS wild-type protein, sequence (P01112 whole entry): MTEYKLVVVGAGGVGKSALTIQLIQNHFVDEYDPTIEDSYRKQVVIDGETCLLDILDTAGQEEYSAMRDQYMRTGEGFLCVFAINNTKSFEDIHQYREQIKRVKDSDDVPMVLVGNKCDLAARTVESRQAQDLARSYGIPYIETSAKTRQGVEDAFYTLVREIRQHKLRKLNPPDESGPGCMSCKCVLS
GDP-bound NRAS wild-type protein, sequence (P01111 whole entry): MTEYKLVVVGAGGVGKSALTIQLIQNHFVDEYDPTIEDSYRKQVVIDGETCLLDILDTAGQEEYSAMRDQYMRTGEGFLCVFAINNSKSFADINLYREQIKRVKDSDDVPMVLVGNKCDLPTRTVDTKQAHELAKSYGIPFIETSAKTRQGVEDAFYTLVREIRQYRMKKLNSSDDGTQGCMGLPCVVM

Row | Structure (SMILES) | IC50 [2] [nM] | NRAS /KRAS [1] | HRAS /KRAS (HRAS wild-type protein)
1 | CCC[C@H]1C(=O)N[C@@H]([C@@H](C)CC)C(=O)N(C)CC(=O)N(C)[C@H]2C/C=C\CCN(C2=O)[C@@H](Cc2ccc(C)cc2)C(=O)N(C)CC(=O)N[C@@H](CCc2ccc(C(F)(F)F)c(Cl)c2)C(=O)N2C[C@H](OCC)C[C@H]2C(=O)NC2(CC(C)(C)C2)C(=O)N(C)[C@@H](CC(C)C)C(=O)N(C)[C@H](C(=O)N(C)C)CC(=O)N1C [PP2224] | 15.4 | A (a compound having 10 or more and less than 20 is denoted as A) | A (a compound having 10 or more and less than 20 is denoted as A)
2 | CCC[C@H]1C(=O)N[C@@H]([C@@H](C)CC)C(=O)N(C)CC(=O)N(C)[C@H]2C/C=C\CCN(C2=O)[C@@H](Cc2ccc(C)cc2)C(=O)N(C)CC(=O)N[C@@H](CCc2ccc(C(F)(F)F)c(Cl)c2)C(=O)N2C[C@H](OCC)C[C@H]2C(=O)NC2(CC(C)(C)C2)C(=O)N(C)[C@@H](CC(F)(F)F)C(=O)N(C)[C@H](C(=O)N(C)C)CC(=O)N1C [PP2226] | 14.7 | A (a compound having 10 or more and less than 20 is denoted as A) | A (a compound having 10 or more and less than 20 is denoted as A)
3 | CCCOC[C@H]1C(=O)N[C@@H]([C@@H](C)CC)C(=O)N(C)CC(=O)N(C)[C@H]2C/C=C\CCN(C2=O)[C@@H](Cc2ccc(C)cc2)C(=O)N(C)CC(=O)N[C@@H](CCc2cc(F)c(C(F)(F)F)c(F)c2)C(=O)N2C[C@H](CCC)C[C@H]2C(=O)NC2(CCCC2)C(=O)N(C)[C@@H](C2CCCC2)C(=O)N(C)[C@H](C(=O)N(C)C)CC(=O)N1C [PP2229] | 39.8 | A (a compound having 10 or more and less than 20 is denoted as A) | A (a compound having 10 or more and less than 20 is denoted as A)
4 | CCC[C@@H]1C[C@H]2C(=O)NC3(CCC3)C(=O)N(C)[C@@H](C3CCCC3)C(=O)N(C)[C@H](C(=O)N(C)C)CC(=O)N(C)[C@@H](CC(C)C)C(=O)N[C@@H]([C@@H](C)CC)C(=O)N(C)CC(=O)N(C)[C@H]3C/C=C\CCN(C3=O)[C@@H](Cc3ccc(C)cc3)C(=O)N(C)CC(=O)N[C@@H](CCc3cc(F)c(C(F)(F)F)c(F)c3)C(=O)N2C1 [PP2231] | 16.2 | A (a compound having 10 or more and less than 20 is denoted as A) | B (a compound having 3 or more and less than 10 is denoted as B)
5 | CCC[C@@H]1C[C@H]2C(=O)NC3(CCC3)C(=O)N(C)[C@@H](C3CCCC3)C(=O)N(C)[C@H](C(=O)N(C)C)CC(=O)N(C)[C@@H](CC)C(=O)N[C@@H]([C@@H](C)CC)C(=O)N(C)CC(=O)N(C)[C@H]3C/C=C\CCN(C3=O)[C@@H](Cc3ccc(C)cc3)C(=O)N(C)CC(=O)N[C@@H](CCc3cc(F)c(C(F)(F)F)c(F)c3)C(=O)N2C1 [PP2233] | 27.6 | A (a compound having 10 or more and less than 20 is denoted as A) | A (a compound having 10 or more and less than 20 is denoted as A)
6 | CCC[C@@H]1C[C@H]2C(=O)NC3(CCC3)C(=O)N(C)[C@@H](C3CCCC3)C(=O)N(C)[C@H](C(=O)N(C)C)CC(=O)N(C)[C@@H](CCC)C(=O)N[C@@H]([C@@H](C)CC)C(=O)N(C)CC(=O)N(C)[C@H]3C/C=C\CCN(C3=O)[C@@H](Cc3ccc(C)cc3)C(=O)N(C)CC(=O)N[C@@H](CCc3ccc(C(F)(F)F)c(Cl)c3)C(=O)N2C1 [PP2238] | 39.3 | A (a compound having 10 or more and less than 20 is denoted as A) | A (a compound having 10 or more and less than 20 is denoted as A)
7 | CCO[C@@H]1C[C@H]2C(=O)NC3(CCC3)C(=O)N(C)[C@@H](C3CCCC3)C(=O)N(C)[C@H](C(=O)N(C)C)CC(=O)N(C)[C@H]3CCCCCc4ccc(cc4)C[C@@H](C(=O)N(C)CC(=O)N[C@@H](CCc4cc(F)c(C(F)(F)F)c(F)c4)C(=O)N2C1)N1CC/C=C\C[C@@H](C1=O)N(C)C(=O)CN(C)C(=O)[C@H]([C@@H](C)CC)NC3=O [PP2261] | 16.6 | A (a compound having 10 or more and less than 20 is denoted as A) | A (a compound having 10 or more and less than 20 is denoted as A)
8 | CCO[C@@H]1C[C@H]2C(=O)NC3(CCCC3)C(=O)N(C)[C@@H](C3CCCC3)C(=O)N(C)[C@H](C(=O)N(C)C)CC(=O)N(C)[C@@H](CC(C)C)C(=O)N[C@@H]([C@@H](C)CC)C(=O)N(C)CC(=O)N(C)[C@H]3C/C=C\CCN(C3=O)[C@@H](Cc3ccc(C(F)(F)F)cc3)C(=O)N(C)CC(=O)N[C@@H](CCc3cc(F)c(Cl)c(F)c3)C(=O)N2C1 [PP2269] | 20 | A (a compound having 10 or more and less than 20 is denoted as A) | A (a compound having 10 or more and less than 20 is denoted as A)

Stronger by IC50 [2], values ahead:

Row | IC50 [2] [nM] | Structure (SMILES) | NRAS /KRAS [1] | HRAS /KRAS (HRAS wild-type protein)
9 | 7 | CCC[C@H]1C(=O)N[C@@H]([C@@H](C)CC)C(=O)N(C)CC(=O)N(C)[C@H]2C/C=C\CCN(C2=O)[C@@H](Cc2ccc(C)cc2)C(=O)N(C)CC(=O)N[C@@H](CCc2ccc(C(F)(F)F)c(Cl)c2)C(=O)N2C[C@H](OCC)C[C@H]2C(=O)NC2(CC(C)(C)C2)C(=O)N(C)[C@@H](CC(C)(C)C)C(=O)N(C)[C@H](C(=O)N(C)C)CC(=O)N1C [PP2230] | A (a compound having 10 or more and less than 20 is denoted as A) | A (a compound having 10 or more and less than 20 is denoted as A)
10 | 11.1 | CCCOC[C@H]1C(=O)N[C@@H]([C@@H](C)CC)C(=O)N(C)CC(=O)N(C)[C@H]2C/C=C\CCN(C2=O)[C@@H](Cc2ccc(C)cc2)C(=O)N(C)CC(=O)N[C@@H](CCc2ccc(C(F)(F)F)c(Cl)c2)C(=O)N2C[C@H](C)C[C@H]2C(=O)NC2(CC(C)(C)C2)C(=O)N(C)[C@@H](C2CCCC2)C(=O)N(C)[C@H](C(=O)N(C)C)CC(=O)N1C [PP2234] | A (a compound having 10 or more and less than 20 is denoted as A) | A (a compound having 10 or more and less than 20 is denoted as A)
11 | 6.5 | CCO[C@@H]1C[C@H]2C(=O)NC3(CC(C)(C)C3)C(=O)N(C)[C@@H](C3CCCC3)C(=O)N(C)[C@H](C(=O)N(C)CC)CC(=O)N(C)[C@H]3CCCCCc4ccc(cc4)C[C@@H](C(=O)N(C)CC(=O)N[C@@H](CCc4ccc(C(F)(F)F)c(OC)c4)C(=O)N2C1)N1CC/C=C\C[C@@H](C1=O)N(C)C(=O)CN(C)C(=O)[C@H]([C@@H](C)CC)NC3=O [PP2259] | A (a compound having 10 or more and less than 20 is denoted as A) | B (a compound having 3 or more and less than 10 is denoted as B)
12 | 1.9 | CCO[C@@H]1C[C@H]2C(=O)NC3(CC(C)(C)C3)C(=O)N(C)[C@@H](C3CCCC3)C(=O)N(C)[C@H](C(=O)N(C)CC)CC(=O)N(C)[C@H]3CCCCCCc4ccc(cc4)C[C@@H](C(=O)N(C)CC(=O)N[C@@H](CCc4ccc(C(F)(F)F)c(OC)c4)C(=O)N2C1)N1CC/C=C\C[C@@H](C1=O)N(C)C(=O)CN(C)C(=O)[C@H]([C@@H](C)CC)NC3=O [PP2260] | A (a compound having 10 or more and less than 20 is denoted as A) | A (a compound having 10 or more and less than 20 is denoted as A)
13 | 3.8 | CCO[C@@H]1C[C@H]2C(=O)NC3(CCC3)C(=O)N(C)[C@@H](C3CCCC3)C(=O)N(C)[C@H](C(=O)N(C)C)CC(=O)N(C)[C@H]3CCCCCc4ccc(cc4)C[C@@H](C(=O)N(C)CC(=O)N[C@@H](CCc4ccc(C(F)(F)F)c(OC)c4)C(=O)N2C1)N1CC/C=C\C[C@@H](C1=O)N(C)C(=O)CN(C)C(=O)[C@H]([C@@H](C)CC)NC3=O [PP2262] | A (a compound having 10 or more and less than 20 is denoted as A) | B (a compound having 3 or more and less than 10 is denoted as B)
14 | 13.1 | CCO[C@@H]1C[C@H]2C(=O)NC3(CCC3)C(=O)N(C)[C@@H](C3CCCC3)C(=O)N(C)[C@H](C(=O)N(C)C)CC(=O)N(C)[C@H]3CCCCCCc4ccc(cc4)C[C@@H](C(=O)N(C)CC(=O)N[C@@H](CCc4ccc(C(F)(F)F)c(OC)c4)C(=O)N2C1)N1CC/C=C\C[C@@H](C1=O)N(C)C(=O)CN(C)C(=O)[C@H]([C@@H](C)CC)NC3=O [PP2264] | AA (a compound having 20 or more is denoted as AA) | A (a compound having 10 or more and less than 20 is denoted as A)
15 | 9.8 | CC[C@H](C)[C@@H]1NC(=O)[C@H](CC(C)C)N(C)C(=O)C[C@@H](C(=O)N(C)C)N(C)C(=O)[C@H](C2CCCC2)N(C)C(=O)C2(CCCC2)NC(=O)[C@@H]2C[C@H](C)CN2C(=O)[C@H](CCc2cc(F)c(C(F)(F)F)c(F)c2)NC(=O)CN(C)C(=O)[C@H](Cc2ccc(C(F)(F)F)cc2)N2CC/C=C\C[C@@H](C2=O)N(C)C(=O)CN(C)C1=O [PP2268] | A (a compound having 10 or more and less than 20 is denoted as A) | A (a compound having 10 or more and less than 20 is denoted as A)
